Data on seven compounds can be found in US7132428B2, “Pyrazoloisoquinoline derivative as kinase inhibitors for the treatment of various disorders” (Aventis Pharmaceuticals Inc., priority 2003, dated 2006).

The test system of data set [1] is human peripheral blood lymphocytes. The data set is described as follows: Cytotoxicity by LDH release, IL1β-stimulated human peripheral blood lymphocytes. Format: cell-based. How it is done:
(§1) The pyrazoloisoquinoline derivatives according to the invention were tested for inhibitory activity against NIK in various in vitro assay systems. In this connection, human peripheral blood lymphocytes were preincubated for 1 h with different concentrations of the compounds and then stimulated for 24 h with LPS or IL1β. After that, a commercially obtainable ELISA test kit was used to measure the release of TNFα in the culture supernatant, and the IC50 for the given compound was determined. The cytotoxicity was measured by way of LDH release using a commercially obtainable test kit and the LD50 for the given compound was determined.

The test system is the same in data set [2]. In words: Cytotoxicity by LDH release, LPS-stimulated human peripheral blood lymphocytes. The data set is classed as cell-based. How it is done:
as §1
Background: LDH in the medium is a marker of cell lysis.

By melting point is commonly meant the temperature of the solid-liquid transition. As to `CCc1n[nH]c2c1nc(-c1ccccc1)c1ccccc12` [Example 46, 5-phenyl-3-ethyl-1H-pyrazolo[4,3-c]isoquinoline], the melting point was in the range of 250 to 251 °C. `FC(F)(F)c1n[nH]c2c1nc(-c1ccccc1)c1ccccc12` [Example 75, 5-phenyl-3-trifluoromethyl-1H-pyrazolo[4,3-c]isoquinoline] yielded a melting point of 264 to 265 °C. `COc1cccc(-c2nc3c(C)n[nH]c3c3ccccc23)c1` [Example 2, 5-(3-Methoxyphenyl)-3-methyl-1H-pyrazolo[4,3-c]isoquinoline]: the “Cytotoxicity LD50” value in data set [1] and in data set [2] was greater than 100 µM throughout. In the case of `Cc1n[nH]c2c1nc(-c1cccc(O)c1)c1ccccc12` [Example 3, 3-(3-Methyl-1H-pyrazolo[4,3-c]isoquinolin-5-yl)phenol], the “Cytotoxicity LD50” value in data set [1] and in data set [2] was greater than 100 µM in each case. `CCc1n[nH]c2c1nc(-c1cccnc1)c1ccccc12` [Example 47, 3-Ethyl-5-(pyridin-3-yl)-1H-pyrazolo[4,3-c)isoquinoline]: the melting point is 219 to 220 °C. As for `Cc1n[nH]c2c1nc(-c1ccccc1)c1cc(Br)ccc12` [Example 62, 7-Bromo-3-methyl-5-phenyl-1H-pyrazolo[4,3-c]isoquinoline], the melting point was in the range of 299 to 300 °C. Consider `c1ccc(-c2nc3c(-c4ccccc4)n[nH]c3c3ccccc23)cc1` [Example 1, 3,5-Diphenyl-1H-pyrazolo[4,3-c]isoquinoline], for which the “Cytotoxicity LD50” value in data set [1] and in data set [2] was greater than 100 µM each time.
